Source: ChEMBL document CHEMBL2434896, “Carbonic anhydrase inhibitors. Synthesis of heterocyclic 4-substituted pyridine-3-sulfonamide derivatives and their inhibition of the human cytosolic isozymes I and II and transmembrane tumor-associated isozymes IX and XII” (Eur J Med Chem, 2013)
pKi: −log10 of the molar value. The source made the active and inactive calls. No cut-off for these calls is given here.

What was measured:
A498 = experiment: Growth inhibition of human A498 cells at 10 uM after 48 hrs by sulforhodamine B assay; assay type: functional
HOP-62 = experiment: Growth inhibition of human HOP62 cells at 10 uM after 48 hrs by sulforhodamine B assay; assay type: functional; details: HOP-62, 48 h, read-out: GI
786-0 = experiment: Growth inhibition of human 786-0 cells at 10 uM after 48 hrs by sulforhodamine B assay; assay type: functional; details: 786-0, 48 h, read-out: GI
SF-295 = experiment: Growth inhibition of human SF295 cells at 10 uM after 48 hrs by sulforhodamine B assay; assay type: functional; details: SF-295, 48 h, read-out: GI
RPMI-8226 = experiment: Growth inhibition of human RPMI8226 cells at 10 uM after 48 hrs by sulforhodamine B assay; assay type: functional; details: RPMI-8226, 48 h, read-out: GI
HT-29 = experiment: Growth inhibition of human HT-29 cells at 10 uM after 48 hrs by sulforhodamine B assay; assay type: functional; details: HT-29, 48 h, read-out: GI
OVCAR-3 = experiment: Growth inhibition of human OVCAR3 cells at 10 uM after 48 hrs by sulforhodamine B assay; assay type: functional
KM12 = experiment: Growth inhibition of human KM12 cells at 10 uM after 48 hrs by sulforhodamine B assay; assay type: functional
COLO 205 = experiment: Growth inhibition of human COLO205 cells at 10 uM after 48 hrs by sulforhodamine B assay; assay type: functional
OVCAR-5 = experiment: Growth inhibition of human OVCAR5 cells at 10 uM after 48 hrs by sulforhodamine B assay; assay type: functional; details: OVCAR-5, 48 h, read-out: GI
SR = experiment: Growth inhibition of human SR cells at 10 uM after 48 hrs by sulforhodamine B assay; assay type: functional; details: read-out: GI
HOP-92 = experiment: Growth inhibition of human HOP92 cells at 10 uM after 48 hrs by sulforhodamine B assay; assay type: functional
Hs-578T = experiment: Growth inhibition of human Hs 578T cells at 10 uM after 48 hrs by sulforhodamine B assay; assay type: functional
LOX IMVI = experiment: Growth inhibition of human LOXIMVI cells at 10 uM after 48 hrs by sulforhodamine B assay; assay type: functional; details: read-out: GI
NCI/ADR-RES = experiment: Growth inhibition of human NCI-ADR-RES cells at 10 uM after 48 hrs by sulforhodamine B assay; assay type: functional
SK-MEL-2 = experiment: Growth inhibition of human SK-MEL-2 cells at 10 uM after 48 hrs by sulforhodamine B assay; assay type: functional; details: SK-MEL-2, 48 h, read-out: GI
CAKI-1 = experiment: Growth inhibition of human CAKI-1 cells at 10 uM after 48 hrs by sulforhodamine B assay; assay type: functional
MCF7 = experiment: Growth inhibition of human MCF7 cells at 10 uM after 48 hrs by sulforhodamine B assay; assay type: functional; details: MCF7, 48 h, read-out: GI
SF-268 = experiment: Growth inhibition of human SF268 cells at 10 uM after 48 hrs by sulforhodamine B assay; assay type: functional
UACC-257 = experiment: Growth inhibition of human UACC257 cells at 10 uM after 48 hrs by sulforhodamine B assay; assay type: functional
BT-549 = experiment: Growth inhibition of human BT549 cells at 10 uM after 48 hrs by sulforhodamine B assay; assay type: functional
NCI-H460 = experiment: Growth inhibition of human NCI-H460 cells at 10 uM after 48 hrs by sulforhodamine B assay; assay type: functional
T47D = experiment: Growth inhibition of human T47D cells at 10 uM after 48 hrs by sulforhodamine B assay; assay type: functional; details: read-out: GI
NCI-H226 = experiment: Growth inhibition of human NCI-H226 cells at 10 uM after 48 hrs by sulforhodamine B assay; assay type: functional; details: NCI-H226, 48 h, read-out: GI
UACC-62 = experiment: Growth inhibition of human UACC62 cells at 10 uM after 48 hrs by sulforhodamine B assay; assay type: functional; details: UACC-62, 48 h, read-out: GI
Carbonic anhydrase 9 = Carbonic anhydrase 9 (Homo sapiens, UniProt Q16790); experiment: Inhibition of human carbonic anhydrase 9 after 15 mins by stopped flow CO2 hydration assay
UO-31 = experiment: Growth inhibition of human UO31 cells at 10 uM after 48 hrs by sulforhodamine B assay; assay type: functional; details: UO-31, 48 h, read-out: GI
SF-539 = experiment: Growth inhibition of human SF539 cells at 10 uM after 48 hrs by sulforhodamine B assay; assay type: functional; details: SF-539, 48 h, read-out: GI
NCI-H322M = experiment: Growth inhibition of human NCI-H322M cells at 10 uM after 48 hrs by sulforhodamine B assay; assay type: functional
MDA-MB-435 = experiment: Growth inhibition of human MDA-MB-435 cells at 10 uM after 48 hrs by sulforhodamine B assay; assay type: functional; details: MDA-MB-435, 48 h, read-out: GI
DU-145 = experiment: Growth inhibition of human DU145 cells at 10 uM after 48 hrs by sulforhodamine B assay; assay type: functional
HCC 2998 = experiment: Growth inhibition of human HCC2998 cells at 10 uM after 48 hrs by sulforhodamine B assay; assay type: functional
K562 = experiment: Growth inhibition of human K562 cells at 10 uM after 48 hrs by sulforhodamine B assay; assay type: functional; details: K562, 48 h, read-out: GI
MOLT-4 = experiment: Growth inhibition of human MOLT4 cells at 10 uM after 48 hrs by sulforhodamine B assay; assay type: functional; details: MOLT-4, 48 h, read-out: GI
SK-OV-3 = experiment: Growth inhibition of human SKOV3 cells at 10 uM after 48 hrs by sulforhodamine B assay; assay type: functional
RXF 393 = experiment: Growth inhibition of human RXF393 cells at 10 uM after 48 hrs by sulforhodamine B assay; assay type: functional
OVCAR-4 = experiment: Growth inhibition of human OVCAR4 cells at 10 uM after 48 hrs by sulforhodamine B assay; assay type: functional; details: OVCAR-4, 48 h, read-out: GI
SNB-75 = experiment: Growth inhibition of human SNB75 cells at 10 uM after 48 hrs by sulforhodamine B assay; assay type: functional; details: SNB-75, 48 h, read-out: GI
IGROV-1 = experiment: Growth inhibition of human IGROV1 cells at 10 uM after 48 hrs by sulforhodamine B assay; assay type: functional
SNB-19 = experiment: Growth inhibition of human SNB19 cells at 10 uM after 48 hrs by sulforhodamine B assay; assay type: functional
OVCAR-8 = experiment: Growth inhibition of human OVCAR8 cells at 10 uM after 48 hrs by sulforhodamine B assay; assay type: functional
CCRF-CEM = experiment: Growth inhibition of human CCRF-CEM cells at 10 uM after 48 hrs by sulforhodamine B assay; assay type: functional; details: read-out: GI
MDA-MB-468 = experiment: Growth inhibition of human MDA-MB-468 cells at 10 uM after 48 hrs by sulforhodamine B assay; assay type: functional; details: MDA-MB-468, 48 h, read-out: GI
SK-MEL-5 = experiment: Growth inhibition of human SK-MEL-5 cells at 10 uM after 48 hrs by sulforhodamine B assay; assay type: functional
SK-MEL-28 = experiment: Growth inhibition of human SK-MEL-28 cells at 10 uM after 48 hrs by sulforhodamine B assay; assay type: functional, cell-based

COc1ccccc1N1CCN(c2ccncc2S(N)(=O)=O)CC1
growth inhibition (GI) (A498): inactive | inhibition of growth at 10 µM (HOP-62): 2% | inhibition of growth at 10 µM (786-0): 3% | inhibition of growth at 10 µM (SF-295): 3% | inhibition of growth at 10 µM (RPMI-8226): 3% | inhibition of growth at 10 µM (HT-29): 4% | growth inhibition (GI) (OVCAR-3): inactive | growth inhibition (GI) (KM12): inactive | growth inhibition (GI) (COLO 205): inactive | inhibition of growth at 10 µM (OVCAR-5): 2% | inhibition of growth at 10 µM (SR): 17% | growth inhibition (GI) (HOP-92): inactive | growth inhibition (GI) (Hs-578T): inactive | inhibition of growth at 10 µM (LOX IMVI): 2% | growth inhibition (GI) (NCI/ADR-RES): inactive | inhibition of growth at 10 µM (SK-MEL-2): 5% | growth inhibition (GI) (CAKI-1): inactive | inhibition of growth at 10 µM (MCF7): 3% | growth inhibition (GI) (SF-268): inactive | growth inhibition (GI) (UACC-257): inactive | growth inhibition (GI) (BT-549): inactive | growth inhibition (GI) (NCI-H460): inactive | inhibition of growth at 10 µM (T47D): 2% | inhibition of growth at 10 µM (NCI-H226): 3% | inhibition of growth at 10 µM (UACC-62): 3% | pKi (Carbonic anhydrase 9): 6.19 | inhibition of growth at 10 µM (UO-31): 10% | inhibition of growth at 10 µM (SF-539): 5% | growth inhibition (GI) (NCI-H322M): inactive | inhibition of growth at 10 µM (MDA-MB-435): 2% | growth inhibition (GI) (DU-145): inactive | growth inhibition (GI) (HCC 2998): inactive | inhibition of growth at 10 µM (K562): 9% | inhibition of growth at 10 µM (MOLT-4): 20% | growth inhibition (GI) (SK-OV-3): inactive | growth inhibition (GI) (RXF 393): inactive | inhibition of growth at 10 µM (OVCAR-4): 2% | inhibition of growth at 10 µM (SNB-75): 10% | growth inhibition (GI) (IGROV-1): inactive | growth inhibition (GI) (SNB-19): inactive | growth inhibition (GI) (OVCAR-8): inactive | inhibition of growth at 10 µM (CCRF-CEM): 7% | inhibition of growth at 10 µM (MDA-MB-468): 2% | growth inhibition (GI) (SK-MEL-5): inactive | growth inhibition (GI) (SK-MEL-28): inactive
